Assay results from patent US7741283B2, “Compositions and methods for inhibiting cell proliferation” (St. Louis University, priority 2003, dated 2010).

Tests used:
H1299/LRP cells [1] = assay: [methyl-3H] thymidine incorporation, H1299/LRP cells; assay type: cell-based, human; conditions: various concentrations
PEA-13 cells = assay: [methyl-3H] thymidine incorporation, PEA-13 cells; assay type: cell-based, mouse; conditions: IGFBP-3 up to 1 μg/ml
Description: (§1) FIG. 7 depicts the effect of TGF-β1 on DNA synthesis (A), cell growth (B) and PAI-1 expression (C) in MEF and PEA-13 cells. (A) Cells were treated with various concentrations of TGF-β1 as indicated. DNA synthesis was determined by measuring [methyl-^3H] thymidine incorporation into cellular DNA. The [methyl-^3H] thymidine incorporation in cells treated without TGF-β1 (100,861±3,720 and 103,262±6,722 cpm/well for MEF and PEA-13 cells, respectively) was taken as 0% inhibition. The negative values of inhibition indicate mitogenic activity. […] Each datapoint is the mean±S.D. of quadruplicate determinations. […] Data are representative of six similar experiments. (B) Cells were treated with various concentrations of TGF-β1 as indicated. The cell number was counted after a 4 day incubation. […] The negative values of the inhibition indicate the growth stimulatory activity. Each datapoint is the mean±S.D. of quadruplicate determinations. […] Data are representative of four similar experiments. (C) Cells were treated with various concentrations of TGF-β1 as indicated. The PAI-1 expression in these cells was determined by Northern blot analysis. The expression of G3PDH was used as control. The relative levels of the transcripts were quantified by a PhosphoImager. Data are representative of four similar experiments. […]

H1299/LRP cells [2] = assay: Cell growth (cell number), H1299/LRP cells; assay type: cell-based, human; conditions: TGF-β1 20 pM or IGFBP-3 1 μg/ml, 3-day
MEF cells = assay: [methyl-3H] thymidine incorporation, MEF cells; assay type: cell-based, mouse; conditions: IGFBP-3 up to 1 μg/ml
Description: as §1

IGFBP-3: human insulin-like growth factor binding protein-3 expressed in E. Coli
Effect on DNA synthesis (H1299/LRP cells [1]): inhibited | Effect on DNA synthesis (PEA-13 cells): did not appear to have a significant effect | Effect on cell growth (H1299/LRP cells [2]): inhibited | Effect on DNA synthesis (MEF cells): did not appear to have a significant effect
